Where two headings read alike, the source gives them in different places.
Experiments:
[1] = test system: phenol oxidizing enzyme from Acremonium murorum; assay: Dye damage of the phenol oxidizing enzyme/enhancer system on colored swatch P10, consecutive washes in detergent formulation; conditions: enzyme 20 mg/l, enhancer 250 μM, 40° C., 1 hour
Protocol: (§1) A number of colored swatches were washed to assess the degree to which the enzymatic bleach system provokes dye damage. Each swatch was subjected to 5 consecutive washes in a detergent formulation. The closed containers were agitated by putting them in a washing machine. The machine was run for 1 hour with the water heated to 40° C. The pH of the wash solution was set to pH 9. The phenol oxidizing enzyme from Acremonium murorum (see above) was added to the wash solution at 20 mg/l. The enhancers were all dosed at 250 μM.

[2] = test system: phenol oxidizing enzyme from Acremonium murorum; assay: Bleaching of oily tomato stains on cotton swatches by phenol oxidizing enzyme/enhancer system; conditions: enhancer 250 μM, detergent formulation 2 g/l, pH 9, 30 min, 30° C.; for Stain bleach performance ΔE, Oily Tomato Stain, With enzyme: enzyme 20 mg/l; for Stain bleach performance ΔE, Oily Tomato Stain, Without enzyme: no enzyme
Protocol: (§2) The potential of the various enhancer to boost the bleach performance of phenol oxidizing enzyme was assessed by washing cotton swatches soiled with tomato stains. Two different bleach monitors were used:
Oily tomato stains were prepared by applying heated concentrated tomato paste, to which 5 wt % Soya oil was added, to cotton swatches.
(§3) The pH of the wash solution was set to pH 9. Purified phenol oxidizing enzyme from Acremonium murorum was added to the wash solution at 20 mg/l. […] The enhancers were all dosed at 250 μM. The wash solution was 50 mM Tris buffer.
(§4) The swatches were washed during 30 minutes, at 30° C. After the wash, the swatches were tumble-dried and the reflectance spectra were measured using a Minolta spectrometer. The color differences between the swatch before and after the wash data were expressed in the CIELAB L*a*b* color space. In this color space, L* indicates lightness and a* and b* are the chromaticity coordinates. Color differences between two swatches are expressed as ΔE, which is calculated from the following equation:
(§5) ΔE={square root over (ΔL^2[…] )}

[3] = test system: phenol oxidizing enzyme from Acremonium murorum; conditions: enhancer 250 μM, detergent formulation 2 g/l, pH 9, 30 min, 30° C.; for Stain bleach performance ΔE, Tomato Extract, With enzyme: enzyme 20 mg/l; for Stain bleach performance ΔE, Tomato Extract, Without enzyme: no enzyme
Protocol: as §2
Tomato extract material was prepared by acetone extraction of the chromophores from concentrated tomato paste. For the preparation of the stains, the colored acetone solution was applied to cotton swatches
as §3, §4, §5

[4] = test system: phenol oxidizing enzyme from Acremonium murorum
From the text: The bleaching detergent composition of the present invention comprise one or more surfactants, a phenol oxidizing enzyme and a compound which acts as enhancer for the phenol oxidizing enzyme, said composition having an Enhancer Index as herein defined of at least 12. The Enhancer Index is defined for the purpose of this invention as the ratio of the bleach effect on tomato stains to the colored monitor P10 (ΔEtomato stain/ΔEP10 colored monitor) , and is further illustrated in the Examples. […] Preferably, the Enhancer Index is at least 15, and in particular in the range of 15-50.
In order to express the potential of the various enhancers to provoke stain bleaching in the absence of dye damage, the ratio of bleach effect on the tomato stains to the colored monitor P10 was calculated (ΔEtomato stain/ΔEP10 colored monitor) . This ratio, when tomato extract is used as the stain, is referred to as the ‘Ehancer Index’.

[5] = test system: phenol oxidizing enzyme from Acremonium murorum; assay: Dye damage of the phenol oxidizing enzyme/enhancer system on dyed swatches, 3 washes in Tris buffer; conditions: Tris buffer pH 8, enzyme 20 mg/l, enhancer 250 μM; for Color difference (ΔE) dyed swatch OO2 after 3 washes: Dyed Monitor OO2, 3 washes; for Color difference (ΔE) dyed swatch OO6 after 3 washes: Dyed Monitor OO6, 3 washes; for Color difference (ΔE) dyed swatch P10 after 3 washes: Dyed Monitor P10, 3 washes; for Color difference (ΔE) dyed swatch PO8 after 3 washes: Dyed Monitor PO8, 3 washes
Protocol: as §1, with “Each swatch was subjected to 5 consecutive washes in a detergent formulation.” left out, “The pH of the wash solution was set to pH 9.” left out

[6] = ΔE oily tomato stain/ΔE P10, 50 mM Tris buffer solution
[7] = ΔE oily tomato stain/ΔE P10, detergent formulation
[8] = ΔE tomato extract/ΔE P10, 50 mM Tris buffer solution
[9] = ΔE tomato extract/ΔE P10, detergent formulation

Compound	Color difference (ΔE) original P10 swatch vs after 1st wash [1]	Color difference (ΔE) original P10 swatch vs after 2nd wash [1]	Color difference (ΔE) original P10 swatch vs after 3rd wash [1]	Color difference (ΔE) original P10 swatch vs after 4th wash [1]	Color difference (ΔE) original P10 swatch vs after 5th wash [1]	Stain bleach performance ΔE, Oily Tomato Stain, With enzyme [2]	Stain bleach performance ΔE, Oily Tomato Stain, Without enzyme [2]	Stain bleach performance ΔE, Tomato Extract, With enzyme [3]	Stain bleach performance ΔE, Tomato Extract, Without enzyme [3]	Ratio Bleach on Stain Monitor/Dye Damage, Oily Tomato Stain [4, 6]	Ratio Bleach on Stain Monitor/Dye Damage, Oily Tomato Stain [4, 7]	Ratio Bleach on Stain Monitor/Dye Damage, Tomato Extract (Enhancer Index) [4, 8]	Ratio Bleach on Stain Monitor/Dye Damage, Tomato Extract (Enhancer Index) [4, 9]	Color difference (ΔE) dyed swatch OO2 after 3 washes [5]	Color difference (ΔE) dyed swatch OO6 after 3 washes [5]	Color difference (ΔE) dyed swatch P10 after 3 washes [5]	Color difference (ΔE) dyed swatch PO8 after 3 washes [5]
O=C(O)CCN1c2ccccc2Sc2ccccc21 [PTP, Phenothiazine-10-propionate]	0.51	0.78	1.79	2.63	3.25	9.41	8.54	33.66	12.00	0.69	2.89	3.59	10.35	6.34	15.64	9.66	12.57
CCn1c(=NN=c2sc3cc(S(=O)(=O)O)ccc3n2CC)sc2cc(S(=O)(=O)O)ccc21 [ABTS]	1.61	1.51	3.29	4.99	6.52	27.53	8.67	37.56	11.12	2.66	4.22	2.93	5.76	3.47	19.70	12.18	24.02
Cc1ccc(S(=O)(=O)Nc2cc(Br)c(O)c(Br)c2Br)cc1 [3Brphenol3MeBSA, N-(2,3,5-tribromo-4-hydroxyphenyl)-4-Methyl Benzenesulfonamide]	0.93	0.98	1.10	1.62	1.86	11.71	6.87	27.57	12.86	6.46	6.29	20.40	14.82	0.41	4.59	0.96	1.52
O=S(=O)(Nc1cc(Br)c(O)c(Br)c1Br)c1ccccc1 [Enhancer 3BrphenolBSA, N-(2,3,5-tribromo-4-hydroxyphenyl)-Benzenesulfonamide]	1.69	1.17	1.20	1.55	1.77	10.95	6.89	26.87	12.99	5.62	6.18	19.97	15.18	0.47	4.45	1.00	1.45

— patent US6380146B1, “Bleaching detergent compositions” (priority 1999, dated 2002)
